The assay has as its system CEM cells HIV-1 protection, formazan growth assay. Briefly: NCI AIDS Antiviral Assay. The settings on record: for IC50: measured here: growth of uninfected CEM cells. The essentials:
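CEM (human) cells, HIV-1 infected vs uninfected, 5-point dosing, formazan growth read-out. Retest threshold 50% protection.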

Activity calls are given as the source filed them.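 How the source made its calls: active means compounds giving half or more protection of infected cells from virus-caused growth loss, again on retest; inactive means the rest.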

By EC50 is commonly meant the concentration that produces a half-maximal response. In general, IC50 refers to the concentration that gives 50% inhibition. Read a high IC50 as a need for much substance. Take `COc1ccc2c(=O)c(-c3ccccc3)c(C)oc2c1`: the EC50 is more than 200 µM and the IC50 was found to be 75.9 µM. Take `C=C(C)C(=O)O[C@H]1CC2(CO)O[C@@H]2CC/C(COC(C)=O)=C/C2OC(=O)C(=C)[C@@H]21` (stereo not given in full): the EC50 is more than 200 µM and the IC50 was 4.37 µM.

Turning to `COP(=O)(CCC1OCCO1)OC`, the EC50 is more than 200 µM and the IC50 is more than 200 µM. For `CCSSc1ccccc1C(=O)O`, the EC50 is more than 200 µM and the IC50 was found to be 32.4 µM. With `CCCCOC(=O)C1CSSCC(NC(C)=O)C(=O)N1` (stereo not given), the EC50 was more than 200 µM and the IC50 came to 112 µM. The compound `NC1=C(Cl)C(=O)c2ccccc2C1=O` yielded an EC50 of more than 200 µM. For the compound `CC(=O)c1c(-c2ccccc2)c(-c2ccc(OCCN(C)C)cc2)n2ccccc12`, the EC50 is more than 200 µM and the IC50 was 7.59 µM. On to `CC(=O)c1cccc(NC(=O)Nc2cccc(C)n2)c1`, for which the EC50 was more than 56.2 µM and the IC50 was 6.92 µM. In the case of `O=C(O)CCC(NC(=O)c1ccc(Oc2nc3ccccc3nc2C(=O)O)cc1)C(=O)O` (stereo not given), the EC50 is more than 200 µM and the IC50 was more than 200 µM. With `CN1C(=O)C2CCCN2C(=O)C1(C)NC(=O)OCc1ccccc1` (stereo not given), the EC50 is more than 269 µM and the IC50 is more than 269 µM.

With `CCC1(CC2CCCN(C)C2)c2ccccc2Sc2ccccc21` (stereo not given), the EC50 is more than 200 µM and the IC50 amounted to 11 µM. With `Cc1ccccc1-n1c(=S)n(-c2ccc(Cl)cc2)c2nc3ccccc3nc1/c2=N/Nc1cc(Cl)ccc1Cl`, the EC50 was more than 200 µM and the concentration for half-maximal inhibition (IC50) was found to be 174 µM. For `CC12CC3CC(C)(C1)CC(CN=C(N)CS)(C3)C2`, in that order: more than 200 µM and 31.6 µM. As to `Cc1cc(C)c2c(c1)C(=O)/C(=C/c1ccccc1C(=O)O)C2`, the result was inactive. For `CC(=O)CC1=C(OC(C)C)C2(OCCO2)C1O` (stereo not given), the EC50 is more than 200 µM and the IC50 is more than 200 µM. As for `CCOC(=O)C1CSC(=N)N1C(C)=O` (stereo not given), the EC50 is 115 µM and the IC50 stood at 123 µM. For `CC[C@H](CCCCC1CC[C@@H]2CC(=O)C[C@H]12)OC` (stereo not given in full), the EC50 is more than 200 µM and the IC50 was more than 200 µM.

Consider `CCCCc1ccc(-n2sc3ncc(C)cc3c2=O)cc1`, for which the EC50 was 1.23 µM and the IC50 was found to be 21.9 µM.

Turning to `COC1=C(N)C(=O)c2ncccc2C1=O`, the outcome was inactive.

As for `O=[N+]([O-])/C(C(Cl)=C(Cl)Cl)=C1\Nc2ccccc2O1`, the EC50 was more than 200 µM and the IC50 worked out at 97.7 µM. The like results for `CC1(C)CCCOc2ccc(C(=O)O)cc21` were, in that order, more than 200 µM and more than 200 µM. The like results for `COC(=O)C(=O)C(CC(=O)Nc1c(C)cccc1C)C(=O)OC` (stereo not given) were, in that order, more than 776 µM and more than 776 µM. For `CO/C(N)=C(\C#N)N=Cc1ccco1`, in that order: more than 200 µM and 191 µM. For the compound `C/C=C(/I)CBr`, the EC50 is more than 955 µM and the IC50 amounted to 479 µM. As to `N/N=C1\CC(c2ccccc2)Oc2ccccc21` (stereo not given), the EC50 was more than 200 µM and the IC50 was determined as 182 µM. For `c1ccc(-c2nnc(SSSSc3nnc(-c4ccccc4)o3)o2)cc1`, in that order: more than 200 µM and 107 µM. On to `CC(CC(=O)N[C@H](C[C@@H](C)C(Cl)(Cl)Cl)c1nccs1)C(Cl)(Cl)Cl` (stereo not given in full), for which the outcome was active. Turning to `O=C(Cc1ccccc1)NN1C(=O)/C(=C\c2cccc(O)c2)SC1=Nc1ccccc1`, the EC50 was more than 158 µM and the IC50 came out at 102 µM.

As to `CCOC(=O)C(OCC1CC=CCC1)Sc1ccccc1` (stereo not given), the EC50 is more than 23.4 µM and the IC50 is more than 23.4 µM.

As to `COc1cccc2c1OC1c3ccccc3OCC1(O)C2` (stereo not given), the result was inactive. Take `C[C@@]1(CO)[C@H](O)CC[C@@]2(C)[C@H]1CC[C@H]1C[C@@H]3C[C@@]12CC[C@@]3(O)COC(=O)CN`: the EC50 was more than 575 µM and the IC50 came to 0.331 µM. Consider `COc1ccc2c(c1)C/C(=C\c1cccc3ccccc13)C2=O`, for which the EC50 is more than 200 µM and the half-maximal inhibitory concentration (IC50) was determined as 51.3 µM.

Consider `Cc1cc(NC(=O)Nc2ccc(N=Nc3cc(S(=O)(=O)O)c4cccc(S(=O)(=O)O)c4c3)c(C)c2)ccc1N=Nc1cc(S(=O)(=O)O)c2cccc(S(=O)(=O)O)c2c1`, for which the EC50 was 20 µM and the IC50 was more than 100 µM.

For the compound `O=C(c1cccs1)N(C(=S)N1CCN(c2ccccc2)CC1)c1ccccc1`, the EC50 is more than 12.9 µM and the IC50 is more than 12.9 µM. In the case of `O=C(CN1CCOCC1)Nc1nc(-c2ccc(Cl)cc2)cs1`, the EC50 was more than 107 µM and the half-inhibitory concentration (IC50) amounted to 33.1 µM. Consider `C[N+](C)(C)CC(=O)N/N=C(/Cc1nc2c3c(ccc2[nH]c1=O)C(=O)c1ccccc1C3=O)C(=O)Nc1ccc(Cl)c(Cl)c1`, for which the EC50 is more than 20.9 µM and the IC50 was more than 20.9 µM. On to `CO/N=C1/c2sccc2[C@H](NC(=O)CNC(=O)OC(C)(C)C)[C@@H]1O`, for which the EC50 is more than 200 µM and the IC50 was more than 200 µM. As for `Cc1cc(S(=O)(=O)N2CCNC2=O)c(S)cc1Cl`, the EC50 was 89.1 µM and the IC50 was found to be 251 µM.

As to `Cc1cc(C)n2nc(N)c(C#N)c2c1C#N`, the EC50 was more than 12.9 µM and the IC50 was more than 12.9 µM. Turning to `S=C=NC/C(Cl)=C/Cl`, the EC50 was more than 200 µM and the concentration for half-maximal inhibition (IC50) worked out at 129 µM.

In the case of `O=C(c1cccc(C(=O)c2ccc3c4c(cccc24)C(=O)N(c2ccccc2)C3=O)c1)c1ccc2c3c(cccc13)C(=O)N(c1ccccc1)C2=O`, the EC50 is more than 200 µM and the IC50 is more than 200 µM. Regarding `CCn1c(=O)c2c3cc(O)ccc3oc2c2ccc(O)cc21`, the EC50 was more than 200 µM and the 50% inhibitory concentration (IC50) was more than 200 µM. In the case of `COc1ccc(C2S/C(=C\c3cccc(O)c3)C(=O)N2NC(=O)Cc2ccccc2)cc1` (stereo not given), the EC50 is more than 112 µM and the IC50 was more than 112 µM. On to `CCOC(=O)c1cc2c(OCc3ccccc3)c(OC)cc3c2c(n1)N(c1ccc(OC)cc1)C(C)C3` (stereo not given), for which the EC50 is more than 10.5 µM and the IC50 was more than 10.5 µM. Regarding `Cc1cc(N(CCC#N)CCC#N)ccc1/C=C1\N=C(c2cc([N+](=O)[O-])ccc2Cl)N(c2cccc(Cl)c2)C1=O`, the EC50 was more than 12.6 µM and the IC50 was more than 12.6 µM.

As for `COc1cc2c(cc1O)[C@H](Cc1ccc(Oc3cc(C[C@H]4c5cc(OC)c(OC)cc5CCN4C)ccc3OC)cc1)NCC2`, the result was inactive. As for `O=C1C=C(N2CCCCC2)c2cc(N3CCCCC3)ncc2C1=O`, the outcome was inactive.

For the compound `CCCCn1cnc2ccc3[nH]c(C)nc3c2c1=O`, the EC50 was more than 759 µM and the IC50 turned out to be 55 µM.

In the case of `Nc1c(-c2ccc(Cl)cc2Cl)[n+]([O-])c2ccccc2[n+]1[O-]`, the outcome was inactive. For the compound `Cc1ccc(C(=O)CCC2C(=O)CC(C)(C)CC2=O)cc1`, the EC50 is more than 91.2 µM and the 50% inhibitory concentration (IC50) was determined as 64.6 µM.

On to `NC(CSS(=O)(=O)O)=NCC1CCCCC1`, for which the EC50 is more than 200 µM and the IC50 was 58.9 µM. As to `FC(F)(F)c1cccnc1Sc1nc2ccccc2s1`, the EC50 is more than 200 µM and the IC50 stood at 38 µM. The like results for `Cc1n[nH]c(=O)n1/N=C\CC/C=N\n1c(C)n[nH]c1=O` were, in that order, more than 200 µM and more than 200 µM. For the compound `COc1ccc2c(c1)CC/C2=C\CC1(C)C(=O)CCC1=O`, the EC50 is more than 200 µM and the IC50 was 107 µM.

(Values after PubChem BioAssay AID179 (DTP/NCI, 2004).)
